Tests used:
Assay type in all cases: in vivo
[1] = tested on: Italian ryegrass (Lolium mutiflorum); experiment: Test C postemergence, visual plant response rating
How it was run: (§1)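 Compounds in a non-phytotoxic solvent with surfactant were applied as a directed soil spray preemergence or to 2–10 cm, one- to two-leaf plants postemergence, in loam–sand soil. After about 10 d in a greenhouse, injury was visually rated against untreated controls on a 0–100 scale (100 = complete control).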

corn (Zea mays) = experiment: Test C postemergence, visual plant response rating
How it was run: as §1

[2] = tested on: ragweed (common ragweed, Ambrosia artemisiifolia); experiment: Test C postemergence, visual plant response rating
How it was run: as §1

[3] = tested on: foxtail, giant (giant foxtail, Setaria faberi); experiment: Test C postemergence, visual plant response rating
How it was run: as §1

[4] = tested on: pigweed (Amaranthus retroflexus); experiment: Test C postemergence, visual plant response rating
How it was run: as §1

[5] = tested on: blackgrass (Alopecurus myosuroides); experiment: Test C postemergence, visual plant response rating
How it was run: as §1

kochia (Bassia scoparia) [6] = experiment: Test C postemergence, visual plant response rating
How it was run: as §1

[7] = tested on: galium (catchweed bedstraw, Galium aparine); experiment: Test C postemergence, visual plant response rating
How it was run: as §1

[8] = tested on: barnyardgrass (Echinochloa crus-galli); experiment: Test C postemergence, visual plant response rating
How it was run: as §1

[9] = tested on: wheat (Triticum aestivum); experiment: Test C postemergence, visual plant response rating
How it was run: as §1

[10] = tested on: Italian ryegrass (Lolium mutiflorum); experiment: Test C preemergence, visual plant response rating
How it was run: as §1

[11] = tested on: ragweed (common ragweed, Ambrosia artemisiifolia); experiment: Test C preemergence, visual plant response rating
How it was run: as §1

[12] = tested on: foxtail, giant (giant foxtail, Setaria faberi); experiment: Test C preemergence, visual plant response rating
How it was run: as §1

[13] = tested on: pigweed (Amaranthus retroflexus); experiment: Test C preemergence, visual plant response rating
How it was run: as §1

kochia (Bassia scoparia) [14] = experiment: Test C preemergence, visual plant response rating
How it was run: as §1

[15] = tested on: barnyardgrass (Echinochloa crus-galli); experiment: Test C preemergence, visual plant response rating
How it was run: as §1

[16] = tested on: sedge umbrella (small-flower umbrella sedge, Cyperus difformis); experiment: Test D flooded paddy test, visual plant response rating; conditions: 250 g ai/ha, scale 0 to 100 (0 no effect, 100 complete control), 13 to 15 d
How it was run: (§2)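 Plants were grown to the 2-leaf stage, pots flooded to 3 cm above soil, and compound applied directly into the paddy water, with the depth held throughout. After 13 to 15 d in a greenhouse, response was rated visually against untreated controls on a 0–100 scale (0 no effect, 100 complete control).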

[17] = tested on: duck salad (Heteranthera limosa); experiment: as above; conditions: 250 g ai/ha, scale 0 to 100 (0 no effect, 100 complete control), 13 to 15 d
How it was run: as §2

rice (Oryza sativa) = experiment: as above; conditions: 250 g ai/ha, scale 0 to 100 (0 no effect, 100 complete control), 13 to 15 d
How it was run: as §2

[18] = tested on: barnyardgrass (Echinochloa crus-galli); experiment: as above; conditions: 250 g ai/ha, scale 0 to 100 (0 no effect, 100 complete control), 13 to 15 d
How it was run: as §2

[19] = Test C, postemergence, 125 g ai/ha
[20] = Test C, 31 g ai/ha, 0 is no effect, 100 is complete control

CON=C(c1cc(Cl)cc(OC)c1)c1c(O)c(C)nn(C)c1=O [Compound 175]
Ryegrass, Italian plant response rating (0 to 100 scale) ([1]; Postemergence, 31 g ai/ha): 50 | Ryegrass, Italian plant response rating (0 to 100 scale) [1, 19]: 70 | Corn plant response rating (0 to 100 scale) (corn (Zea mays); Postemergence, 31 g ai/ha): 10 | Corn plant response rating (0 to 100 scale) (corn (Zea mays); [19]): 20 | Ragweed plant response rating (0 to 100 scale) ([2]; Postemergence, 31 g ai/ha): 80 | Ragweed plant response rating (0 to 100 scale) [2, 19]: 90 | Foxtail, Giant plant response rating (0 to 100 scale) ([3]; Postemergence, 31 g ai/ha): 50 | Foxtail, Giant plant response rating (0 to 100 scale) [3, 19]: 80 | Pigweed plant response rating (0 to 100 scale) ([4]; Postemergence, 31 g ai/ha): 50 | Pigweed plant response rating (0 to 100 scale) [4, 19]: 70 | Blackgrass plant response rating (0 to 100 scale) ([5]; Postemergence, 31 g ai/ha): 20 | Blackgrass plant response rating (0 to 100 scale) [5, 19]: 30 | Kochia plant response rating (0 to 100 scale) (kochia (Bassia scoparia) [6]; Postemergence, 31 g ai/ha): 80 | Kochia plant response rating (0 to 100 scale) (kochia (Bassia scoparia) [6]; [19]): 100 | Galium plant response rating (0 to 100 scale) ([7]; Postemergence, 31 g ai/ha): 90 | Galium plant response rating (0 to 100 scale) [7, 19]: 100 | Barnyardgrass plant response rating (0 to 100 scale) ([8]; Postemergence, 31 g ai/ha): 50 | Barnyardgrass plant response rating (0 to 100 scale) [8, 19]: 70 | Wheat plant response rating (0 to 100 scale) ([9]; Postemergence, 31 g ai/ha): 0 | Wheat plant response rating (0 to 100 scale) [9, 19]: 0 | Ryegrass, Italian plant response rating (0 to 100 scale) ([10]; 125 g ai/ha): 50 | Ryegrass, Italian plant response rating (0 to 100 scale) [10, 20]: 30 | Ragweed plant response rating (0 to 100 scale) ([11]; 125 g ai/ha): 100 | Ragweed plant response rating (0 to 100 scale) [11, 20]: 40 | Foxtail, Giant plant response rating (0 to 100 scale) ([12]; 125 g ai/ha): 70 | Foxtail, Giant plant response rating (0 to 100 scale) [12, 20]: 30 | Pigweed plant response rating (0 to 100 scale) ([13]; 125 g ai/ha): 30 | Pigweed plant response rating (0 to 100 scale) [13, 20]: 0 | Kochia plant response rating (0 to 100 scale) (kochia (Bassia scoparia) [14]; 125 g ai/ha): 80 | Kochia plant response rating (0 to 100 scale) (kochia (Bassia scoparia) [14]; [20]): 40 | Barnyardgrass plant response rating (0 to 100 scale) ([15]; 125 g ai/ha): 70 | Barnyardgrass plant response rating (0 to 100 scale) [15, 20]: 50 | Plant response rating, Sedge, Umbrella (Flood) [16]: 0 | Plant response rating, Ducksalad (Flood) [17]: 0 | Plant response rating, Rice (Flood) (rice (Oryza sativa)): 0 | Plant response rating, Barnyardgrass (Flood) [18]: 0

CON=C(c1ccc(F)c(Br)c1)c1c(O)c(C)nn(C)c1=O [Compound 176]
Ryegrass, Italian plant response rating (0 to 100 scale) ([1]; Postemergence, 31 g ai/ha): 60 | Ryegrass, Italian plant response rating (0 to 100 scale) [1, 19]: 90 | Corn plant response rating (0 to 100 scale) (corn (Zea mays); Postemergence, 31 g ai/ha): 0 | Corn plant response rating (0 to 100 scale) (corn (Zea mays); [19]): 0 | Ragweed plant response rating (0 to 100 scale) ([2]; Postemergence, 31 g ai/ha): 30 | Ragweed plant response rating (0 to 100 scale) [2, 19]: 70 | Foxtail, Giant plant response rating (0 to 100 scale) ([3]; Postemergence, 31 g ai/ha): 10 | Foxtail, Giant plant response rating (0 to 100 scale) [3, 19]: 20 | Pigweed plant response rating (0 to 100 scale) ([4]; Postemergence, 31 g ai/ha): 70 | Pigweed plant response rating (0 to 100 scale) [4, 19]: 80 | Blackgrass plant response rating (0 to 100 scale) ([5]; Postemergence, 31 g ai/ha): 0 | Blackgrass plant response rating (0 to 100 scale) [5, 19]: 30 | Kochia plant response rating (0 to 100 scale) (kochia (Bassia scoparia) [6]; Postemergence, 31 g ai/ha): 20 | Kochia plant response rating (0 to 100 scale) (kochia (Bassia scoparia) [6]; [19]): 70 | Galium plant response rating (0 to 100 scale) ([7]; Postemergence, 31 g ai/ha): 60 | Galium plant response rating (0 to 100 scale) [7, 19]: 90 | Barnyardgrass plant response rating (0 to 100 scale) ([8]; Postemergence, 31 g ai/ha): 30 | Barnyardgrass plant response rating (0 to 100 scale) [8, 19]: 40 | Wheat plant response rating (0 to 100 scale) ([9]; Postemergence, 31 g ai/ha): 0 | Wheat plant response rating (0 to 100 scale) [9, 19]: 0 | Ryegrass, Italian plant response rating (0 to 100 scale) ([10]; 125 g ai/ha): 20 | Ryegrass, Italian plant response rating (0 to 100 scale) [10, 20]: 10 | Ragweed plant response rating (0 to 100 scale) ([11]; 125 g ai/ha): 20 | Ragweed plant response rating (0 to 100 scale) [11, 20]: 10 | Foxtail, Giant plant response rating (0 to 100 scale) ([12]; 125 g ai/ha): 10 | Foxtail, Giant plant response rating (0 to 100 scale) [12, 20]: 0 | Pigweed plant response rating (0 to 100 scale) ([13]; 125 g ai/ha): 60 | Pigweed plant response rating (0 to 100 scale) [13, 20]: 10 | Kochia plant response rating (0 to 100 scale) (kochia (Bassia scoparia) [14]; 125 g ai/ha): 0 | Kochia plant response rating (0 to 100 scale) (kochia (Bassia scoparia) [14]; [20]): 0 | Barnyardgrass plant response rating (0 to 100 scale) ([15]; 125 g ai/ha): 0 | Barnyardgrass plant response rating (0 to 100 scale) [15, 20]: 0 | Plant response rating, Sedge, Umbrella (Flood) [16]: 0 | Plant response rating, Ducksalad (Flood) [17]: 0 | Plant response rating, Rice (Flood) (rice (Oryza sativa)): 0 | Plant response rating, Barnyardgrass (Flood) [18]: 0
